The target of one assay is BRD4-BD1-BD2 (Homo sapiens (Human), UniProt O60885). In words: AlphaScreening assay, recombinant BRD4-BD1-BD2 and BET Ligand. Type of assay: binding. The conditions noted are these: 2.5 nM BRD4-BD1-BD2, BET Ligand. Here is the method:
Assays were performed by AlphaScreening technology using a recombinant BRD4-BD1-BD2 and BET Ligand. The AlphaScreening signal from the assay was correlated with the amount of BET Ligand binding to the bromodomain. The compounds were diluted in 50% DMSO and 1 μl of the dilution was added to a 10 μl reaction so that the final concentration of DMSO is 5% in all of reactions. All reactions were conducted at room temperature. The 9 μl reaction mixture in BRD Assay Buffer contains 2.5 nM BRD4-BD1-BD2 and the indicated amount of the inhibitor, and the reaction mixture were incubated for 30 min followed by additional 30 min incubation after the addition of 1 μl of BET Ligand (Table 2.3.1). For the negative control (blank), 1 μl of the assay buffer was added instead of the BET Ligand. After the 30 min incubation with the BET Ligand, 20 μl of BRD Detection buffer containing 10 μg/ml Glutathione acceptor beads and 10 μg/ml Streptavidin Donor beads was added and the final 30 μl mixture was incubated for 50 min in a dark room.
AlphaScreening signal was measured using EnSpire Alpha 2390 Multilabel reader (Perkin Elmer). Binding experiments were performed in duplicate at each concentration. The AlphaScreening data were analyzed using the computer software, Graphpad Prism. In the absence of the compound, the AlphaScreening signal (At) in each data set was defined as 100% activity. In the absence of the BET Ligand, the AlphaScreening signal (Ab) in each data set was defined as 0% activity. The percent activity in the presence of each compound was calculated according to the following equation: % activity=[(A−Ab)/(At−Ab)]×100, where A=the AlphaScreening signal in the presence of the compound, Ab=the AlphaScreening signal in the absence of the BET Ligand, and At=the AlphaScreening signal in the absence of the compound. The percent inhibition was calculated for certain compounds according to the following equation: % inhibition=100−% activity.

Assay [1] deals with MV4-11 acute myeloid leukemia cells. Kind of assay: In vitro cell viability (AlamarBlue), MV4-11. The class given is cell-based. The conditions noted are these: Homo sapiens, MV4-11 cells, 72-hour incubation, read-out: In Vitro Cell Viability (IC50) MV4-11 Cells (AML). Here is the method: (§1) MV4-11 acute myeloid leukemia cells (American Type Culture Collection, Manassas, Va.) were added to 96-well clear bottom assay plates containing RPMI-1640 medium supplemented with 10% fetal bovine serum (FBS) at approximately 30,000 cells/well and incubated for 24 hours at 37° C. with 5% CO2 and 95% humidity. Control wells containing no cells were included to measure background fluorescence signal. Test compounds were dissolved at […] and diluted two-fold in DMSO to produce a working stock of compound solutions. Aliquots of the working stock solutions were subsequently diluted 100-fold in basal RPMI-1640 medium which was then further diluted 10-fold to the assay plate containing the cells to provide 10 test concentrations ranging from 0.04 μM-20 μM. Following a 72-hour incubation period, viability of the cells was determined by the AlamarBlue® assay (Life Technologies, Carlsbad, Calif.) following the manufacturer's protocol. Prior to generation of dose response curves, the data were background subtracted using the no cell control values (mean+/−standard deviation) and fluorescence values versus Log10 concentration of test compounds were plotted using GraphPad Prism. The resulting sigmoidal curve was then fit to the graph and IC50 values were calculated using a 4 parameter (4PL) algorithm using the following equation: 4(PL)F(x)=(A−D)/(1+(x/c)^B+D, where A=lower asymptote (baseline response), D=upper asymptote (maximum response), C=drug concentration that provokes a response halfway between A and D, B=slope of the curve. The results for selected compounds are set forth in Table 7.
In general terms: The colour change of resazurin is a common sign of viable cells or microbes.

Assay [2] has as its system MM1.S Cells (Multiple Myeloma). Kind of assay: In vitro cell viability, MM1.S. Type of assay: cell-based. Conditions: Homo sapiens. Here is the method: [Worded in the source for another cell line; this cell line is reported under the same test.] as §1

In the case of `C/C(=C\C(=O)c1c(-c2ccccc2)c2cc(Cl)ccc2[nH]c1=O)c1c(F)cccc1Cl`, the inhibition at 10 µM on BRD4-BD1-BD2 turned out to be 50%.
The same measure, in the same setting: the result for `Cc1noc(C)c1-c1ccc2[nH]c(=O)cc(O)c2c1` reads 51%.
As to `COc1ccccc1/C=C/C(=O)c1c(-c2ccccc2)c2cc(Cl)ccc2[nH]c1=O` [Compound 5, 6-chloro-3-(3-(2-methoxyphenyl)acryloyl)-4-phenylquinolin-2(1H)-one], the IC50 amounted to 1.49 µM in assay [1] and 2.53 µM in assay [2].
As to `COc1ccc(/C=C/C(=O)c2c(-c3ccccc3)c3cc(Cl)ccc3[nH]c2=O)cc1OC` [Compound 6, 6-chloro-3-(3-(3,4-dimethoxyphenyl)acryloyl)-4-phenylquinolin-2(1H)-one], the IC50 in assay [1] was determined as 3.57 µM; in assay [2], 31.9 µM.
For `COc1ccc(OC)c(/C=C/C(=O)c2c(-c3ccccc3)c3cc(Br)ccc3[nH]c2=O)c1` [Compound 10, 6-bromo-3-(3-(2,5-dimethoxyphenyl)acryloyl)-4-phenylquinolin-2(1H)-one], in that order: 1.75 µM and 3 µM.
Regarding `O=C(/C=C/c1ccccc1)c1c(-c2ccncc2)c2cc(Cl)ccc2[nH]c1=O` [Compound 11, 6-chloro-3-cinnamoyl-4-(pyridin-4-yl)quinolin-2(1H)-one], the IC50 in assay [1] turned out to be 0.97 µM; in assay [2] it was 4.21 µM.
For `Cc1ccccc1/C=C/C(=O)c1c(-c2cccnc2)c2cc(Cl)ccc2[nH]c1=O` [Compound 12, 6-chloro-4-(pyridin-3-yl)-3-(3-o-tolylacryloyl)quinolin-2(1H)-one], in that order: 1.04 µM and 2.44 µM.
On to `Cc1ccccc1CNC(=O)c1c(-c2ccccc2)c2cc(Cl)ccc2[nH]c1=O` [Compound 13, 6-chloro-N-(2-methylbenzyl)-2-oxo-4-phenyl-1,2-dihydroquinoline-3-carboxamide], for which the IC50 in assay [1] came to 4.73 µM; in assay [2] it was 3.1 µM.
`O=C(/C=C/c1ccccc1)c1c(-c2ccccc2)c2cc(Cl)cnc2[nH]c1=O` [Compound 14, 6-chloro-3-cinnamoyl-4-phenyl-1,8-naphthyridin-2(1H)-one]: the results for the IC50 in assay [1] and in assay [2] were 0.71 µM and 14.1 µM, respectively.
For `Cc1noc(C)c1-c1ccc2[nH]c(=O)c(C(=O)/C=C/c3ccccc3)c(-c3cccnc3)c2c1` [drawing 644], on BRD4-BD1-BD2, the inhibition at 10 µM stood at 62%.
As for `Cc1ccc(-c2nnc(Sc3c(-c4ccccc4)c4cc(Cl)ccc4[nH]c3=O)n2/N=C/c2ccccc2)cc1` [drawing 646], the inhibition at 10 µM on BRD4-BD1-BD2 worked out at 70%.
Turning to `Cc1ccc(-c2nnc(Sc3c(-c4ccccc4)c4cc(Cl)ccc4[nH]c3=O)n2/N=C/c2ccccc2)cc1` [drawing 647], the “% inhibition at 10 μM” value at BRD4-BD1-BD2 is listed as 71%.
Take `COc1ccc(Cn2c(=O)c(-c3coc(C)n3)c(OS(=O)(=O)c3ccccc3)c3cc(Cl)ccc32)cc1` [drawing 651]: on BRD4-BD1-BD2, the inhibition at 10 µM is 98%.
The same measure, in the same setting: under `COc1ccc(Cn2c(=O)c(-c3coc(C)n3)c(OS(=O)(=O)c3cccc4cccnc34)c3cc(Cl)ccc32)cc1` [drawing 652] stands 98%; under `COc1ccc(Cn2c(=O)c(-c3coc(C)n3)c(OS(=O)(=O)c3ccc(C)cc3)c3cc(Cl)ccc32)cc1` [drawing 653], 99%; under `COc1ccc(Cn2c(=O)c(-c3coc(C)n3)c(OS(=O)(=O)c3ccc(F)cc3)c3cc(Cl)ccc32)cc1` [drawing 654], 99%.
On the same count and under the same terms, the result for `COc1ccc(Cn2c(=O)c(-c3coc(C)n3)c(OS(=O)(=O)c3ccc(Cl)cc3)c3cc(Cl)ccc32)cc1` [drawing 655] reads 99%.
Regarding `COc1ccc(Cn2c(=O)c(-c3coc(C)n3)c(OS(=O)(=O)c3ccc4ccccc4c3)c3cc(Cl)ccc32)cc1` [drawing 656], at BRD4-BD1-BD2, the inhibition at 10 µM was found to be 99%.
Consider `COc1ccc(Cn2c(=O)c(-c3coc(C)n3)c(OS(=O)(=O)c3ccc(-c4ccccc4)cc3)c3cc(Cl)ccc32)cc1` [drawing 657], for which the inhibition at 10 µM on BRD4-BD1-BD2 stood at 99%.

A word on the inhibition: it is the percentage by which the read-out fell short of the control. As usually defined, the IC50 is the point on the concentration scale where inhibition reaches its midpoint. A word on the % inhibition: it is the share of the control response that was lost under treatment.

Source of the values: patent publication US9695179B2, “Methods and compositions for inhibition of bromodomain-containing proteins” (CONVERGENE LLC, priority 2013, dated 2017).
